For two molecules, DDA and MBC results are on record in patent US20080262097A1, “Formulations” (priority 2005, published 2008).

Like-named read-outs stand apart in the source and are kept apart here. Bounds are passed on as bounds.

For one assay, the system named is S. aureus CPHL EMRSA 16. Briefly: Disc diffusion assay (DDA). It is filed as cell-based, Staphylococcus aureus. Conditions: zone diameter, 200 μg per disc. The method, then:
(§1) Other staphylococcal strains were also tested, as described in Example 5 below. These included certain antibiotic resistant staphylococci, such as the methicillin resistant S. aureus (MRSA) strains EMRSA-15 and EMRSA-16, both available from the Central Public Health Laboratory (CPHL), Colindale, UK. These strains are resistant not only to all beta-lactams but also to a number of other antibiotics in clinical use, making them a serious threat to human health. They are also responsible for the majority (>95%) of hospital-acquired MRSA infections in the UK.
(§2) The staphylococci and enterococci were cultured and maintained on Mueller-Hinton Medium (agar and broth) at pH 7.2; they were incubated aerobically at 37° C. for 24 hours.
(§3) A sterile paper disc was impregnated with a sample of the test compound and a minimum of 30 minutes allowed for the solvents to evaporate as far as possible. The disc was then placed on an agar plate onto which the test micro-organism had been inoculated. The plate was then incubated under the conditions described above, following which it was examined visually for signs of bacterial growth. If the test compound had antimicrobial activity, a circular zone of no growth would be obtained around the disc. The diameter of this zone of “inhibition” was measured using a ProtoCOL™ automated zone sizer (Synbiosis, Cambridge, UK). In general, a greater diameter and/or area of the zone of inhibition indicates a greater antimicrobial activity in the relevant test compound, although other factors such as test compound mobility through the agar gel may also influence the result.
(§4) The area of the zone of inhibition was calculated from the measured zone diameter (D) using the formula π(D/2)^2.

Another assay relates to S. aureus CPHL EMRSA 15. Briefly: Disc diffusion assay (DDA). It is filed as cell-based, Staphylococcus aureus. Conditions: zone diameter, 200 μg per disc. The method, then: as §1, §2, §3, §4
A general note: In agar diffusion tests the substance spreads into inoculated agar from a disc or well.

A further assay deals with S. aureus ATCC 25923. The assay is described as follows: Disc diffusion assay (DDA). It is filed as cell-based, Staphylococcus aureus. Conditions: zone diameter, 200 μg per disc. The method, then:
as §2, §3, §4

In a further assay the test system is S. aureus CPHL VISA Mu50. Briefly: Disc diffusion assay (DDA). It is filed as cell-based, Staphylococcus aureus. Conditions: zone diameter, 200 μg per disc. The method, then:
as §2, §3, §4

The subject of the next assay is S. aureus ATCC 12602. Briefly: Disc diffusion assay (DDA). The assay is classed as cell-based, Staphylococcus aureus. The conditions noted are these: zone diameter, 200 μg per disc. As to the method:
as §2, §3, §4

In the next assay the test system is S. aureus ATCC 12606. Briefly: Disc diffusion assay (DDA). The assay is classed as cell-based, Staphylococcus aureus. The conditions noted are these: zone diameter, 200 μg per disc. As to the method: as §2, §3, §4
Another assay concerns S. aureus ATCC 12607. Briefly: Disc diffusion assay (DDA). Conditions: zone diameter, 200 μg per disc. It is filed as cell-based, Staphylococcus aureus. As to the method: as §2, §3, §4
For a further assay, the system named is S. aureus ATCC 12601. The assay is described as follows: Disc diffusion assay (DDA). It is filed as cell-based, Staphylococcus aureus. Conditions: zone diameter, 200 μg per disc. The method, then:
as §2, §3, §4

Assay [1] has as its system S. aureus CPHL GISA HO41340156. The assay is described as follows: Disc diffusion assay (DDA). It is filed as cell-based, Staphylococcus aureus. Conditions: zone diameter, 200 μg per disc. The method, then: as §2, §3, §4
The test system of a further assay is S. aureus CPHL EMRSA 17. The assay is described as follows: Disc diffusion assay (DDA). Conditions: zone diameter, 200 μg per disc. It is filed as cell-based, Staphylococcus aureus. The method, then:
as §2, §3, §4

The next assay concerns S. aureus ATCC 12605. Briefly: Disc diffusion assay (DDA). It is filed as cell-based, Staphylococcus aureus. The conditions noted are these: zone diameter, 200 μg per disc. The method, then:
as §2, §3, §4

The test system of the next assay is S. aureus CPHL VISA Mu3. The assay is described as follows: Disc diffusion assay (DDA). The assay is classed as cell-based, Staphylococcus aureus. Conditions: zone diameter, 200 μg per disc. As to the method:
as §2, §3, §4

In a further assay the test system is S. aureus ATCC 12600-U. Briefly: Disc diffusion assay (DDA). The assay is classed as cell-based, Staphylococcus aureus. The conditions noted are these: zone diameter, 200 μg per disc. The method, then:
as §2, §3, §4

Another assay concerns S. aureus ATCC 12604. Briefly: Disc diffusion assay (DDA). It is filed as cell-based, Staphylococcus aureus. The conditions noted are these: zone diameter, 200 μg per disc. As to the method: as §2, §3, §4
Assay [2] has as its system E faecalis ATCC 29212. The assay is described as follows: MBC assay. It is filed as cell-based. Conditions: Enterococcus faecalis, ATCC29212.
Description: (§5) 3. Enterococcus faecalis ATCC 29212—this is a Gram-positive bacterium belonging to the genus Enterococcus. Enterococci have similar properties to streptococci, but differ in their ability to grow on bile-salt containing media such as MacConkey's Agar. Their principal habitat is the mammalian gastrointestinal tract. They cause a number of important infections including endocarditis, urinary tract infections and abscesses. In the context of skin, they are frequently isolated from wound infections. Unlike the streptococci, the enterococci have developed widespread resistance to penicillin. More recently, E. faecalis and E. faecium strains have also developed resistance to the glycopeptide antibiotics such as vancomycin. Vancomycin-Resistant Enterococci (VRE), principally vanA strains of E. faecium, now represent a serious healthcare-acquired infection hazard in the USA, Japan and Western Europe.
as §2
This assay, normally carried out after an MIC assay, determines the minimum concentration of a compound that is lethal to the micro-organism being tested.
These samples were then individually sub-cultured on non-selective agar medium, under the incubation conditions described above. […]

For assay [3], the system named is E faecalis ATCC 29212. The assay is described as follows: Disc diffusion assay (DDA). It is filed as cell-based, Enterococcus faecalis. The conditions noted are these: zone diameter, 200 μg per disc.
Description: as §5, with “Europe. […]” for “Europe.”
A sterile paper disc was impregnated with a sample of the test compound and a minimum of 30 minutes allowed for the solvents to evaporate as far as possible. […] The diameter of this zone of “inhibition” was measured using a ProtoCOL™ automated zone sizer (Synbiosis, Cambridge, UK). […]
The area of the zone of inhibition was calculated from the measured zone diameter (D) using the formula π(D/2)^2. […]

With `CC(C)(C)c1cc(O)ccc1O` [TBHQ, t-butyl hydroquinone], the DDA was 67.72 mm with S. aureus CPHL EMRSA 16; 55.14 mm in the assay on S. aureus CPHL EMRSA 15; 44.70 mm in the assay with S. aureus ATCC 25923; 50.11 mm in the assay with S. aureus CPHL VISA Mu50; 57.66 mm with S. aureus ATCC 12602; 53.34 mm with S. aureus ATCC 12606. Moreover, the DDA in the assay with S. aureus ATCC 12607 worked out at 54.50 mm; in the assay on S. aureus ATCC 12601, 57.34 mm; in assay [1], 75.37 mm; with S. aureus CPHL EMRSA 17 it was 51.05 mm; in the assay with S. aureus ATCC 12605, 59.55 mm; with S. aureus CPHL VISA Mu3, 50.73 mm. Moreover, the results for the DDA with S. aureus ATCC 12600-U, in the assay on S. aureus ATCC 12604 and in the assay with E faecalis ATCC 29212 [3] were 51.24 mm, 55.03 mm and 33.67 mm, respectively. For the same molecule, in the assay with E faecalis ATCC 29212 [2], the minimal bactericidal concentration (MBC) is 31.2 µg/mL.
`O=C(OOC(=O)c1ccccc1)c1ccccc1` [benzoyl peroxide]: the DDA in the assay with S. aureus CPHL EMRSA 16 came out at 10.80 mm; with S. aureus CPHL EMRSA 15, 10.17 mm; in the assay on S. aureus ATCC 25923, 10.86 mm; with S. aureus CPHL VISA Mu50, 11.64 mm; in the assay with S. aureus ATCC 12602, 12.73 mm; in the assay with S. aureus ATCC 12606, 11.68 mm. Besides, the DDA is 12.31 mm in the assay with S. aureus ATCC 12607; 11.68 mm with S. aureus ATCC 12601; 12.16 mm in [1]; 11.74 mm in the assay with S. aureus CPHL EMRSA 17; 12.20 mm in the assay on S. aureus ATCC 12605; 10.90 mm with S. aureus CPHL VISA Mu3. Moreover, the DDA in the assay on S. aureus ATCC 12600-U is recorded as 12.20 mm; in the assay on S. aureus ATCC 12604 it was 12.52 mm; in the assay on E faecalis ATCC 29212 [3], 0.0 mm. Moreover, the MBC in the assay on E faecalis ATCC 29212 [2] (E faecalis ATCC 29212, read-out: MBC) was over 250 µg/mL.

As usually defined, the MBC is the smallest concentration meeting the test's criterion for killing.
